The test system of test [1] is SARS-CoV-2 (strain NTU02) in Vero E6 cells. It counts as cell-based. Particulars: pre-treatment, 48 hours, MOI 0.0003, FIG. 13.
The test system is the same in test [2]. Type of test: cell-based. Particulars: 5 μM; compared with DMSO; 3-day post infection; FIG. 12.
Test [3] has as its target T1, SARS-CoV-2 M^pro (Severe acute respiratory syndrome coronavirus 2, UniProt P0DTD1). Kind of test: FRET assay of SARS-CoV-2 Mpro activity with tafenoquine or hydroxychloroquine. It counts as biochemical. Particulars: FIG. 1.
Test [4] relates to SARS-CoV-2 (strain NTU02) in Vero E6 cells. Kind of test: microbe, parasite or virus in culture. It counts as cell-based.
Test [5] addresses T1, SARS-CoV-2 M^pro. Kind of test: FRET assay of SARS-CoV-2 Mpro activity with boceprevir or narlaprevir. Type of test: biochemical. Particulars: 50 μM drug; 1 μM Mpro; FIG. 6; read-out: inhibitory effect on SARS-CoV-2 Mpro activity.
Test [6] concerns SARS-CoV-2 (strain NTU02) in Vero E6 cells. Type of test: cell-based. Particulars: pre-treated cells, various concentrations; compared to DMSO control; 3-day post infection; FIG. 14.
For test [7], the target named is T1, SARS-CoV-2 M^pro. It counts as binding. The settings on record: various concentrations; FIG. 2A, 2B.
Test [8] addresses T1, SARS-CoV-2 M^pro. Kind of test: Soluble fraction / stability of Mpro in presence of drug. Particulars: concentration up to 500 μM; FIG. 4.
Test [9] concerns the target T1, SARS-CoV-2 M^pro. Kind of test: Limited proteolysis assay by trypsin digestion. Particulars: drug 0, 30, 60, 90 μM; FIG. 5A, 5B.
Experimental: To further probe the conformational changes of SARS-CoV-2 M^pro, the limited proteolysis assay by trypsin digestion is performed. […] Proteolysis is performed by mixing SARS-CoV-2 M^pro (0.8 mg/ml) with trypsin at a protease-to-protein ratio of 1:10 (w/w) in a reaction buffer (25 mM Tris at pH 8.0, 150 mM NaCl) at 37° C. for 30 minutes. The reaction is stopped by adding SDS sample loading buffer and boiling at 95° C. for 10 minutes and subjected to SDS-PAGE (4%-20%).

Where two headings read alike, the source gives them in different places.

For the compound `CCC(CC)COC(=O)[C@H](C)N[P@](=O)(OC[C@H]1O[C@@](C#N)(c2ccc3c(N)ncnn23)[C@H](O)[C@@H]1O)Oc1ccccc1` [remdesivir], the “inhibition rate against viral RNA production” value in test [1] (1 μM remdesivir) was around 26.3%.
Consider `COc1cc(C)c2c(Oc3cccc(C(F)(F)F)c3)c(OC)cc(NC(C)CCCN)c2n1` (centres unmarked) [tafenoquine], for which, in test [2], the “SARS-CoV-2-induced cytopathic effect” value was “significant decrease”. In addition, the inhibition at 90 µM in test [3] (90 μM, 4 μM Mpro, read-out: inhibition against SARS-CoV-2 Mpro) is around 90%. Besides, the “viral RNA versus DMSO-treated group” value in test [4] (2.5 μM, day not given, FIG. 10) is on record as “no significant difference”. Besides, the “yield of viral RNA in cell supernatant” value in [4] (Day 1 to Day 2 after infection, FIG. 10) is “significantly represses”. The EC50 in test [4] (Severe acute respiratory syndrome coronavirus 2, Vero C1008, 48 h, read-out: half maximal effective concentration (EC50)) is around 2.5 µM.
With `CCCC[C@H](NC(=O)[C@@H]1[C@@H]2[C@H](CN1C(=O)[C@@H](NC(=O)NC1(CS(=O)(=O)C(C)(C)C)CCCCC1)C(C)(C)C)C2(C)C)C(=O)C(=O)NC1CC1` [narlaprevir], in test [5], the inhibition at 50 µM turned out to be 64.1 ± 2.5%. Also, the “cytopathic effect induced by SARS-CoV-2 infection” value in [6] is reported as “significantly lesser”. Also, the “inhibition rate against viral RNA production” value in test [1] (40 μM narlaprevir) was “approximately 76.4%”.
Take `CCN(CCO)CCCC(C)Nc1ccnc2cc(Cl)ccc12` (centres unmarked) [hydroxychloroquine]: the “shift in melting temperature / thermal stability of Mpro” value in [7] is listed as “no influence on the thermal stability”. In addition, in test [8], the “stability of Mpro” value is given as “does not influence the stability”. Also, the “inhibitory effect on SARS-CoV-2 Mpro” value in test [3] (various concentrations) is given as “does not demonstrate any significant inhibitory effects”. For the same compound, the “cleavage of Mpro by trypsin” value in test [9] was “no concentrations of hydroxychloroquine tested reduce the cleavage”.
Turning to `CC(C)(C)NC(=O)N[C@H](C(=O)N1C[C@H]2[C@@H]([C@H]1C(=O)NC(CC1CCC1)C(=O)C(N)=O)C2(C)C)C(C)(C)C` (some centres unmarked) [boceprevir], in test [5], the inhibition at 50 µM is 76.5 ± 4.8%.

(Values after patent US20210330661A1 (China Medical University, priority 2020, published 2021).)
